pIC50: −log10 of the molar value.
Biological target: His-tagged recombinant human Gal-3 (hGal-3) (Homo sapiens (Human), UniProt P17931)
Test: Gal-3 HTRF assay (hGal-3 / B-ASF)
Type: binding
Settings: 15 nM hGal-3, 15 nM B-ASF, three replicates, room temperature, read-out: hGal3 IC50
Experimental: ASSAY BUFFER Composition: 25 mM HEPES, 100 mM NaCl, 0.005% Tween 20, 0.05% BSA prepared in sterile water (all reagents from Sigma)
Positive Control: 100% DMSO (1 μl)+His-tagged hGal-3 (20 μL)+B-ASF (20 μl)+Anti-His Terbium Antibody (5 μl)+Strep d2 Antibody (5 μl).
Negative Control: 100% DMSO (1 μl)+His-tagged hGal-3 (20μL)+Anti His Terbium Antibody (5 μl)+Strep d2 Aantibody (5 μl).
PROTOCOL: The Gal-3 assays were performed in 384 white Opti plates in three replicates at room temperature with gentle shaking at 250-300 rpm From the original stocks, […] working stock concentrations of His-tagged recombinant human Gal-3 (hGal-3) and that of B-ASF were prepared. From the working stock, 20 μl of hGal-3 (15 nM) and 20 μl B-ASF (15 nM) were added to the plates. In Negative Control, only hGal-3 was added. A concentration range of 50× working stocks were prepared for the compounds in 100% DMSO. Aliquots of 1 uL of the compounds were added to the wells and pre-incubated with 20 μl hGal-3 per well for 30 minutes Then 20 μl B-ASF were added and incubated for another 1 hour. To detect the signal, 5 μ(final conc. of 1.0 nM) terbium labelled Anti-His antibody was added and incubated for 30 min followed by adding 5 μ(final conc. of 20 nM) Streptavidin d2 and incubation for another 1 hour. The assay signal was detected using HTRF screen protocol (Excitation wavelength=340 nm, emission wavelength=615 nm/665 nm) on Envision 2104 Multilabel Reader. Data analysed using Toolset and Curve Master. Results are reported in the experimental section (IC50 in μM).

Sequence of His-tagged recombinant human Gal-3 (hGal-3) (P17931 whole entry): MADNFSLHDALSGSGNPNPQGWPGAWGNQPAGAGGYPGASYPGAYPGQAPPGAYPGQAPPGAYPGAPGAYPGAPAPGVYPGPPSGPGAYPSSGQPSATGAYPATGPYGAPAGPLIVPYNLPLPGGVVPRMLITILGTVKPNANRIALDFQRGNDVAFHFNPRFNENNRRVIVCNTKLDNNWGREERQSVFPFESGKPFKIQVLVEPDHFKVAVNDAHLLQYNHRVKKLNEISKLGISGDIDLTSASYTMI

Structure (SMILES) | pIC50
CC(O[C@@H]1[C@@H](n2cc(-c3cc(F)c(F)c(F)c3)nn2)[C@@H](O)[C@@H](CO)O[C@@H]1Sc1ccc(Cl)c(Cl)c1)C(=O)O (single isomer, unassigned) [Example 38 (isomer-1)] | 6.82
CC(O[C@@H]1[C@@H](n2cc(-c3cc(F)c(F)c(F)c3)nn2)[C@@H](O)[C@@H](CO)O[C@@H]1Sc1ccc(Cl)c(Cl)c1)C(=O)O (single isomer, unassigned) [Example 38 (isomer-2)] | 7.40
CC(O[C@@H]1[C@@H](n2cc(-c3cc(F)c(F)c(F)c3)nn2)[C@@H](O)[C@@H](CO)O[C@@H]1S(=O)(=O)c1ccc(Cl)c(Cl)c1)C(=O)O (single isomer, unassigned) [Example 39 (isomer-1)] | 6.44
CC(O[C@@H]1[C@@H](n2cc(-c3cc(F)c(F)c(F)c3)nn2)[C@@H](O)[C@@H](CO)O[C@@H]1S(=O)(=O)c1ccc(Cl)c(Cl)c1)C(=O)O (single isomer, unassigned) [Example 39 (isomer-2)] | 7.70
OC[C@H]1O[C@H](Sc2ccc(Cl)c(Cl)c2)[C@H](F)[C@@H](n2cc(-c3cc(F)c(F)c(F)c3)nn2)[C@H]1O (single isomer, unassigned) [Example 62 (isomer-1)] | 5.66
OC[C@H]1O[C@@H](Sc2ccc(Cl)c(Cl)c2)[C@H](F)[C@@H](n2cc(-c3cc(F)c(F)c(F)c3)nn2)[C@H]1O (single isomer, unassigned) [Example 62 (isomer-2)] | 5.00
CO[C@@H]1[C@@H](n2cc(-c3cc(F)c(F)c(F)c3)nn2)[C@@H](O)[C@@H](CO)O[C@@H]1S(=O)(=O)c1ccc(Cl)c(Cl)c1 [Example 3, (2R,3R,4S,5R,6R)-6-((3,4-dichlorophenyl)sulfonyl)-2-(hydroxymethyl)-5-methoxy-4-(4-(3,4,5-trifluorophenyl)-1H-1,2,3-triazol-1-yl)tetrahydro-2H-pyran-3-ol] | 6.95
COCCO[C@@H]1[C@@H](n2cc(-c3cc(F)c(F)c(F)c3)nn2)[C@@H](O)[C@@H](CO)O[C@@H]1S(=O)(=O)c1ccc(Cl)c(Cl)c1 [Example 12, (2R,3R,4S,5R,6R)-6-((3,4-dichlorophenyl)sulfonyl)-2-(hydroxymethyl)-5-(2-methoxyethoxy)-4-(4-(3,4,5-trifluorophenyl)-1H-1,2,3-triazol-1-yl)tetrahydro-2H-pyran-3-ol] | 6.89
[O-][N+]1(CCO[C@@H]2[C@@H](n3cc(-c4cc(F)c(F)c(F)c4)nn3)[C@@H](O)[C@@H](CO)O[C@@H]2Sc2ccc(Cl)c(Cl)c2)CCOCC1 [Example 13, 4-(2-(((2R,3R,4S,5R,6R)-2-((3,4-dichlorophenyl)thio)-5-hydroxy-6-(hydroxymethyl)-4-(4-(3,4,5-trifluorophenyl)-1H-1,2,3-triazol-1-yl)tetrahydro-2H-pyran-3-yl)oxy)ethyl)morpholine 4-oxide] | 7.30
N#CCO[C@@H]1[C@@H](n2cc(-c3cc(F)c(F)c(F)c3)nn2)[C@@H](O)[C@@H](CO)O[C@@H]1Sc1ccc(Cl)c(Cl)c1 [Example 15, 2-(((2R,3R,4S,5R,6R)-2-((3,4-dichlorophenyl)thio)-5-hydroxy-6-(hydroxymethyl)-4-(4-(3,4,5-trifluorophenyl)-1H-1,2,3-triazol-1-yl)tetrahydro-2H-pyran-3-yl)oxy)acetonitrile] | 6.64
CCOC(=O)CO[C@@H]1[C@@H](n2cc(-c3cc(F)c(F)c(F)c3)nn2)[C@@H](O)[C@@H](CO)O[C@@H]1S(=O)(=O)c1ccc(Cl)c(Cl)c1 [Example 17, ethyl 2-(((2R,3R,4S,5R,6R)-2-((3,4-dichlorophenyl)sulfonyl)-5-hydroxy-6-(hydroxymethyl)-4-(4-(3,4,5-trifluorophenyl)-1H-1,2,3-triazol-1-yl)tetrahydro-2H-pyran-3-yl)oxy)acetate] | 6.72
O=C(O)CO[C@@H]1[C@@H](n2cc(-c3cc(F)c(F)c(F)c3)nn2)[C@@H](O)[C@@H](CO)O[C@@H]1S(=O)(=O)c1ccc(Cl)c(Cl)c1 [Example 19, 2-(((2R,3R,4S,5R,6R)-2-((3,4-dichlorophenyl)sulfonyl)-5-hydroxy-6-(hydroxymethyl)-4-(4-(3,4,5-trifluorophenyl)-1H-1,2,3-triazol-1-yl)tetrahydro-2H-pyran-3-yl)oxy)acetic acid] | 7.22
O=C(CO[C@@H]1[C@@H](n2cc(-c3cc(F)c(F)c(F)c3)nn2)[C@@H](O)[C@@H](CO)O[C@@H]1Sc1ccc(Cl)c(Cl)c1)N1CCC(O)CC1 [Example 20, 2-(((2R,3R,4S,5R,6R)-2-((3,4-dichlorophenyl)thio)-5-hydroxy-6-(hydroxymethyl)-4-(4-(3,4,5-trifluorophenyl)-1H-1,2,3-triazol-1-yl)tetrahydro-2H-pyran-3-yl)oxy)-1-(4-hydroxypiperidin-1-yl)ethan-1-one] | 7.40

Next, values leading:

pIC50 | Structure (SMILES)
7.77 | O=C(O)CO[C@@H]1[C@@H](n2cc(-c3cc(F)c(F)c(F)c3)nn2)[C@@H](O)[C@@H](CO)O[C@@H]1[S+]([O-])c1ccc(Cl)c(Cl)c1 (single isomer, unassigned) [18 (isomer-1)]
7.00 | O=C(O)CO[C@@H]1[C@@H](n2cc(-c3cc(F)c(F)c(F)c3)nn2)[C@@H](O)[C@@H](CO)O[C@@H]1[S+]([O-])c1ccc(Cl)c(Cl)c1 (single isomer, unassigned) [18 (isomer-2)]
7.54 | CO[C@@H]1[C@@H](n2cc(-c3cc(F)c(F)c(F)c3)nn2)[C@@H](O)[C@@H](CO)O[C@@H]1[S+]([O-])c1ccc(Cl)c(Cl)c1 (single isomer, unassigned) [Example 2 (isomer-1)]
6.81 | CO[C@@H]1[C@@H](n2cc(-c3cc(F)c(F)c(F)c3)nn2)[C@@H](O)[C@@H](CO)O[C@@H]1[S+]([O-])c1ccc(Cl)c(Cl)c1 (single isomer, unassigned) [Example 2 (isomer-2)]
7.00 | CCO[C@@H]1[C@@H](n2cc(-c3cc(F)c(F)c(F)c3)nn2)[C@@H](O)[C@@H](CO)O[C@@H]1[S+]([O-])c1ccc(Cl)c(Cl)c1 (single isomer, unassigned) [Example 9 (isomer-1)]
6.47 | CCO[C@@H]1[C@@H](n2cc(-c3cc(F)c(F)c(F)c3)nn2)[C@@H](O)[C@@H](CO)O[C@@H]1[S+]([O-])c1ccc(Cl)c(Cl)c1 (single isomer, unassigned) [Example 9 (isomer-2)]
6.15 | CO[C@@H]1[C@@H](n2cc(-c3cc(F)c(F)c(F)c3)nn2)[C@@H](O)[C@@H](CO)O[C@@H]1Sc1ccc(Cl)c(Cl)c1 [Example 1, (2R,3R,4S,5R,6R)-6-((3,4-dichlorophenyl)thio)-2-(hydroxymethyl)-5-methoxy-4-(4-(3,4,5-trifluorophenyl)-1H-1,2,3-triazol-1-yl)tetrahydro-2H-pyran-3-ol]
5.98 | CCO[C@@H]1[C@@H](n2cc(-c3cc(F)c(F)c(F)c3)nn2)[C@@H](O)[C@@H](CO)O[C@@H]1Sc1ccc(Cl)c(Cl)c1 [Example 4, (2R,3R,4S,5R,6R)-6-((3,4-dichlorophenyl)thio)-5-ethoxy-2-(hydroxymethyl)-4-(4-(3,4,5-trifluorophenyl)-1H-1,2,3-triazol-1-yl)tetrahydro-2H-pyran-3-ol]
6.70 | CCO[C@@H]1[C@@H](n2cc(-c3cc(F)c(F)c(F)c3)nn2)[C@@H](O)[C@@H](CO)O[C@@H]1S(=O)(=O)c1ccc(Cl)c(Cl)c1 [Example 10, (2R,3R,4S,5R,6R)-6-((3,4-dichlorophenyl)sulfonyl)-5-ethoxy-2-(hydroxymethyl)-4-(4-(3,4,5-trifluorophenyl)-1H-1,2,3-triazol-1-yl)tetrahydro-2H-pyran-3-ol]
7.25 | COCCO[C@@H]1[C@@H](n2cc(-c3cc(F)c(F)c(F)c3)nn2)[C@@H](O)[C@@H](CO)O[C@@H]1[S@+]([O-])c1ccc(Cl)c(Cl)c1 [Example 11, (2R,3R,4S,5R,6R)-6-((R)-(3,4-dichlorophenyl)sulfinyl)-2-(hydroxymethyl)-5-(2-methoxyethoxy)-4-(4-(3,4,5-trifluorophenyl)-1H-1,2,3-triazol-1-yl)tetrahydro-2H-pyran-3-ol]
6.42 | CCOC(=O)CO[C@@H]1[C@@H](n2cc(-c3cc(F)c(F)c(F)c3)nn2)[C@@H](O)[C@@H](CO)O[C@@H]1Sc1ccc(Cl)c(Cl)c1 [Example 14, ethyl 2-(((2R,3R,4S,5R,6R)-2-((3,4-dichlorophenyl)thio)-5-hydroxy-6-(hydroxymethyl)-4-(4-(3,4,5-trifluorophenyl)-1H-1,2,3-triazol-1-yl)tetrahydro-2H-pyran-3-yl)oxy)acetate]
7.60 | CCOC(=O)CO[C@@H]1[C@@H](n2cc(-c3cc(F)c(F)c(F)c3)nn2)[C@@H](O)[C@@H](CO)O[C@@H]1[S@@+]([O-])c1ccc(Cl)c(Cl)c1 [Example 16, ethyl 2-(((2R,3R,4S,5R,6R)-2-((S)-(3,4-dichlorophenyl)sulfinyl)-5-hydroxy-6-(hydroxymethyl)-4-(4-(3,4,5-trifluorophenyl)-1H-1,2,3-triazol-1-yl)tetrahydro-2H-pyran-3-yl)oxy)acetate]

Source: patent US11072626B2, “Small molecule inhibitors of Galectin-3” (BRISTOL-MYERS SQUIBB COMPANY, priority 2017, dated 2021)
